Experimental data taken from patent US6673772B2, “Dipeptide compounds and their use as antiviral agents” (Sumitomo Pharmaceuticals Company Limited, priority 2000, dated 2004).

Key:
[1] = target: T1, recombinant HIV-1 protease (Human immunodeficiency virus type 1 group M subtype B, UniProt P04585); test: Measurement of HIV protease inhibitory activity; assay type: biochemical; settings: 50 nM compound; 10.5 nM HIV-1 protease, pH 6.5, 37° C., 60 minutes
T1 construct: 10.5 nM HIV-1 protease
Description: Measurement of HIV protease inhibitory activity
The protease inhibitory activity was measured according to the method reported by T. Mimoto et al., J. Med. Chem., 42, 1789-1802 (1999) by using a recombinant HIV-1 protease (see Biochemistry, 250, 9, 264 (1990)) and a synthesized peptide substrate (H-Ser-Gln-Asn-Tyr-Pro-Ile-Val-OH). Specifically, reaction solutions (15 μl each) containing any one of the compounds synthesized in the above Examples 1-15 and Reference Examples 1-4, an inhibitor in which a known anti-AIDS agent (nelfinavir) is dissolved in DMSO in different concentrations, 10.5 nM HIV-1 protease, 20 mM synthesized peptide substrate, and 100 mM MES buffer solution (pH 6.5) were incubated at 37° C. for 60 minutes. Peptide fragments produced by cleaving the Tyr-Pro bonds in the synthesized peptide substrate was quantitatively measured by reverse phase HPLC.

[2] = tested on: HIV virus (HIV-1 IIIB strain); test: Measurement of anti-HIV activity (cytopathic effect, XTT) in CEM-SS cells; assay type: cell-based; settings: 6 days, in the presence of 50% human plasma
Description: Measurement of anti-HIV activity
The anti-HIV activity of the compounds synthesized Examples 1-15 and Reference Examples 1-4 was measured according to the method reported by 0. S. Weislow et al. (J. Natl. Cancer Inst. 81, 577-586, 1989) using CEM-SS cells as host cells and HIV virus (HIV-1 IIIB strain)(see T. Mimoto et al., J. Med. Chem., 42, 1789-1802, 1999, etc.).
Specifically, the compounds synthesized Examples 1-15 and […] in various concentrations were added to a culture medium on 96-well microtiter plates. Human blood serum was added to a final concentration of 50%, then HIV infected CEM-SS cells was added, followed by incubation in a CO2 atmosphere at 37° C. for 6 days. The cytopathic effect induced by HIV-1 IIIB was measured by tetrazolium dye XTT dyeing method to evaluate the 50% inhibitory concentration (IC50).

With Cc1ccc(C[C@H](NC(=O)c2cccc(O)c2C)[C@H](O)C(=O)N2CSC(C)(C)[C@H]2C(=O)NCc2ccccc2C)cc1 [Ex. 9, (R)-N-(2-methylbenzyl)-3-[(2S,3S)-2-hydroxy-3-(3-hydroxy-2-methylbenzoyl)amino-4-(4-metylphenyl)butanoyl]-5,5-dimethyl-1,3-thiazolidine-4-carboxamide] the “HIV protease inhibition rate (%) at 50 nM” value [1] was 97% and the “Anti-HIV IC50” value [2] was 0.02 µg/mL.
